Measured values published in article PMC4140803 (PLoS ONE, 2014).
Read-outs that look alike come from different tables or passages of the source.

Legend:
[1] = tested on: HIV-1RF; assay: Anti-HIV activity in vitro, C8166; format: cell-based; conditions: Human immunodeficiency virus 1, subtype B
Experimental: (§1) C8166 cells were infected with different HIV-1 or HIV-2 laboratory strains and resistant strains at different serial concentration compounds with multiplicity of infection (MOI) of 0.075∼0.6. PHA-stimulated PBMCs were incubated with different clinical strains in RPMI-1640 (with 10% FBS, 50 U/ml IL-2 and 2 µg/ml polybrene) at MOI of 0.1. After infection at 37°C in 5% CO2 for 2 hours, C8166 cells were washed three times to remove free viruses and re-suspended by RPMI-1640 (with 10% FBS). 100 µl 4×10^4 cells (5×10^5 cells for PBMC) were seeded each well in a 96-well plate with gradient concentration of FNC. The plate was placed in a humidified incubator at 37°C, 5% CO2. 3TC and AZT were used as control. After incubation of 3–7 days, the percentage inhibition of syncytia formation was scored or the level of p24 was measured by ELISA [19] and 50% effective concentration (EC50) were calculated.

[2] = tested on: HIV-1_74V; assay: Anti-HIV activity in vitro, C8166; format: cell-based; conditions: Human immunodeficiency virus 1, subtype B, NRTI-resistant
Experimental: as §1

[3] = tested on: HIV-2ROD; assay: Anti-HIV activity in vitro, C8166; format: cell-based; conditions: Human immunodeficiency virus 2, subtype A
Experimental: as §1

[4] = tested on: HIV-2CBL-20; assay: Anti-HIV activity in vitro, C8166; format: cell-based; conditions: Human immunodeficiency virus 2; C8166, HIV-2CBL-20, subtype A
Experimental: as §1

[5] = tested on: HIV-1KM018; assay: Anti-HIV activity in vitro, PBMC; format: cell-based; conditions: for EC50: read-out: EC50s
Experimental: as §1

[6] = tested on: HIV-1TC-1; assay: Anti-HIV activity in vitro, PBMC; format: cell-based; conditions: Human immunodeficiency virus 1, HIV-1TC-1, CRF01AE, clinical strain
Experimental: as §1

[7] = tested on: HIV-1WAN T69N; assay: microbe, parasite or virus in culture; format: cell-based; conditions: for EC50: Human immunodeficiency virus 1, PBMC, HIV-1WAN T69N, CRF01AE, clinical strain
[8] = tested on: HIV-1IIIB; assay: Selection of drug-resistant HIV-1 variants and genotypic resistance assay; format: cell-based
[9] = tested on: pNL4-3 gp41 (36G) V38A/N42T; format: cell-based, HIV-1; conditions: C8166, pNL4-3 gp41 (36G) V38A/N42T, subtype B, FI-resistant
[10] = tested on: FNCP-21 HIV-1 IIIB; assay: Phenotypic analysis of resistant variants in C8166; format: cell-based; conditions: for EC50: Human immunodeficiency virus 1, C8166, FNC-selected HIV-1IIIB at P-21; for FC, fold change, the ratio of EC50(Mut)/EC50(WT): FNCP-21 HIV-1 IIIB vs wild type HIV-1IIIB
[11] = tested on: 3TCP-21 HIV-1IIIB; assay: Phenotypic analysis of resistant variants in C8166; format: cell-based; conditions: for EC50: Human immunodeficiency virus 1, C8166, 3TC-selected HIV-1IIIB at P-21; for FC, fold change, the ratio of EC50(Mut)/EC50(WT): 3TCP-21 HIV-1IIIB vs wild type HIV-1IIIB
[12] = tested on: C8166 cells; format: cell-based, human
Experimental: (§2) Cytotoxicity was assayed by MTT colorimetric reduction as previously described, [18]. Briefly, a serial concentration of FNC was added to a 96-well plate, followed by 100 µl 4×10^4 C8166 cells (5×10^5 cells for PBMC). After incubation at 37°C, 5% CO2 for 3 days (7 days for PBMCs), 20 µl MTT was added each well. After incubation for 4 hours, 100 µl supernatant was removed and 100 µl 20%SDS-50%DMF was added. The plate was incubated at 37°C overnight. The optical absorbance was measured by ELISA reader (ELx800, Bio-Tek, VT, USA) at 570 nm and 630 nm, and 50% cytotoxicity concentration (CC50) was calculated. 3TC and AZT were used as control.

[13] = tested on: HIV-1L10R/M46I/L63P/V82T/I84V; assay: microbe, parasite or virus in culture; format: cell-based; conditions: Human immunodeficiency virus 1, C8166, read-out: EC50s
[14] = tested on: Wild type HIV-1IIIB; assay: Anti-HIV activity / phenotypic analysis in C8166; format: cell-based; conditions: for EC50: Human immunodeficiency virus 1, C8166, wild type HIV-1IIIB; for FC, fold change, the ratio of EC50(Mut)/EC50(WT): wild type HIV-1IIIB (reference)
[15] = tested on: PBMC; format: cell-based, human
Experimental: C8166 cells were kindly donated by the Medical Research Council (MRC), the AIDS Reagent Project, U.K, and were maintained in RPMI-1640 with 10% FBS in humidified incubator with 5% CO2 at 37°C [16]. Peripheral blood mononuclear cells (PBMCs) were isolated from healthy donors by Ficoll-Hypaque density gradient centrifugation as described by the manufacturer’s instructions (Ethical Approval Number: SWYX-2011016). PBMCs were stimulated with 10% FBS, 5 µg/ml PHA and 50 U/ml IL-2 for three days before experiments.
as §2

[16] = tested on: HIV-2; assay: Anti-HIV activity in vitro, summary over HIV-2 strains; format: cell-based; conditions: Human immunodeficiency virus 2; range over HIV-2 strains; read-out: EC50s on HIV-2
Experimental: as §1

[17] = tested on: HIV-1; assay: Activity assay with 50% human serum in C8166; format: cell-based; conditions: C8166, 50% human serum, data not shown
[18] = tested on: HIV-1; assay: Anti-HIV activity in vitro, summary over HIV-1 strains; format: cell-based; conditions: Human immunodeficiency virus 1
Experimental: as §1

[19] = tested on: HIV-1IIIB; assay: Quantification of HIV-1 DNA species by real-time quantitative PCR; conditions: HIV-1IIIB infected C8166, 2 nM FNC or 2 µM 3TC
[20] = Human immunodeficiency virus 1, PBMC, HIV-1KM018, B/C recombinant, clinical strain

Compound	EC50 [1] [nM]	EC50 [2] [µM]	EC50 [3] [nM]	EC50 [4] [nM]	EC50 [5, 20] [µM]	EC50 [6] [µM]	EC50 [7] [µM]	EC50 [9] [µM]	EC50 [10] [µM]	EC50 [11] [µM]	CC50s ([12]; C8166 cells, MTT, 3 days) [µM]	EC50 [13] [µM]	EC50 [14] [µM]	CC50s ([15]; PBMC, MTT, 7 days) [µM]	FC, fold change, the ratio of EC50(Mut)/EC50(WT) [10]	FC, fold change, the ratio of EC50(Mut)/EC50(WT) [11]	FC, fold change, the ratio of EC50(Mut)/EC50(WT) [14]	also measured
Nc1ccn([C@@H]2CS[C@H](CO)O2)c(=O)n1 [3TC, lamivudine, reference compound]	350 ± 206	0.243 ± 0.0101	257 ± 43.6	319 ± 29.8	0.34 ± 0.0122	0.0517 ± 0.00308	0.0865 ± 0.011	0.386 ± 0.0362	124	690	930 ± 190	0.416 ± 0.0118	0.202 ± 0.0341	825.98 ± 30.52				inhibition at 1 µM ([8]; Human immunodeficiency virus 1, C8166): > 99%
Cc1cn([C@H]2C[C@H](N=[N+]=[N-])[C@@H](CO)O2)c(=O)[nH]c1=O [AZT, zidovudine]									0.0123 ± 0.00024	0.0131 ± 0.00243			0.00939 ± 0.00122		1.31	1.40	1	EC50 ([5]; Human immunodeficiency virus 1, PBMC): 0.478 ± 0.0455 µM; CC50s ([12]; human): 5090 ± 260 µM; CC50s ([15]; human): 845.31 ± 66.23 µM
[N-]=[N+]=N[C@]1(CO)O[C@@H](n2ccc(N)nc2=O)[C@@H](F)[C@@H]1O [FNC, 2′-deoxy-2′-β-fluoro-4′-azidocytidine]	0.03 ± 0.02	0.00011 ± 1e-05	0.018 ± 0.006	0.025 ± 0.002	0.00692 ± 0.00059	0.00034 ± 4e-05	0.00045 ± 9e-05	0.00036 ± 3e-05	0.0808 ± 0.00814	0.0255 ± 0.00186	2380 ± 50	0.00014 ± 1e-05	0.00011 ± 2e-05	3.07 ± 0.23	735	232	1	EC50 [16]: 0.018 to 0.025 nM; suppressive effects fold stronger than 3TC ([5]; clinical strains in PBMC, first value of the sentence): 49 fold; EC50s against HIV-1 in presence of human serum [17]: unaffected; suppressive effects fold stronger than 3TC ([7]; clinical strains in PBMC, second value of the sentence): 192 fold; inhibition at 0.0005 µM ([8]; Human immunodeficiency virus 1, HIV-1IIIB infected C8166, 500 pM FNC): > 99%; EC50 ([18]; range over HIV-1 strains, read-out: EC50s on HIV-1): 0.03 to 6.92 nM; EC50 ([18]; wild-type HIV-1IIIB and HIV-1RF, read-out: 50% effective concentration values (EC50)): 0.03 to 0.11 nM; levels of ssDNA (strong-stop minus-strand DNA) ([19]; 1 h, 2 h and 4 h post-infection): significantly reduced; late RT level (full-length double-stranded DNA) ([19]; 4 h, 6 h and 8 h post-infection, P<0.01): significantly reduced
